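Results reflect a 48-hour exposure of cells in 96-well plates to compound at five concentrations. TGI denotes the concentration required for complete inhibition of growth.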
Columns and labels:
Test in all cases: NCI tumour cell line growth inhibition, 48 h
RXF-631 renal = test system: RXF-631 renal
LXFL 529 NSCLC = test system: LXFL 529 NSCLC
P388 leukemia = test system: P388 leukemia
SN12K1 renal = test system: SN12K1 renal
P388/ADR leukemia = test system: P388/ADR leukemia

Row | Structure (SMILES) | TGI (LXFL 529 NSCLC) [µM] | also measured
1 | NC(=O)CC(N=Cc1nc(-c2ccccc2)oc1O)C(=O)O (centres undefined) | > 100 | TGI (RXF-631 renal): > 100 µM
2 | NC(=S)N1N=C2c3ccccc3CC[C@H]2[C@@H]1c1ccc(Cl)cc1 | > 100 | 
3 | O=C(O)/C=C/c1c[nH]c(=O)[nH]c1=O |  | TGI (P388 leukemia): > 500 µM; TGI (SN12K1 renal): > 500 µM; TGI (P388/ADR leukemia): > 500 µM
4 | C#CCN(Cc1ccc2nc(-c3ccccc3)c(N)nc2c1)c1cc(OC)c(OC)c(OC)c1 | 91.2 | 
5 | C[C@H](CCC1SC1(C)C)C1CCC2(C)C3=C(CC[C@]12C)[C@@]1(C)CC[C@H](O)C(C)(C)C1CC3 (some centres undefined) | > 100 | 
6 | COc1cc(C(C)O)c[n+](CCC2CNc3ccccc32)c1 (centres undefined) | > 100 | 

Source: PubChem BioAssay (NCI)
